Laboratory results published in patent US10252987B2, “Type of antiviral compound” (Institute of Medicinal Biotechnology, Chinese Academy of …, priority 2015, dated 2019).

tested on: HCV; assay: anti-HCV activity assay in cell culture (HCV RNA by one-step quantitative RT-PCR); assay type: cell-based; conditions: Hepatitis C virus, Huh7.5, 96 h, compound at 10 μmol/L; Huh7.5 cells infected with HCV virus particles; cultured 96 hrs; HCV RNA in cells vs virus control group; read-out: percent inhibition (%)
Method: The assay results of anti-HCV activity of the compound synthesized according to the present invention in cell culture are shown in Table 1, wherein the molecular weight is calculated by ChemBioDraw 12.0 software from the molecular structure of each compound.
100 μL Huh7.5 cells were seeded in 96-well cell culture plate to 1×10^5/mL density, cultured in an incubator at 37° C. under the condition of 5% CO2 and saturated humidity for 6 hrs. Huh7.5 cells were then infected by viral solution containing HCV virus particles, and solutions of compound of the present invention at a concentration of 10 μmol/L liquid were added respectively, cultured for further 96 hrs, and then total RNA was extracted from the cells. Amount of HCV RNA in cells was determined by one-step quantitative RT-PCR, and compared to RNA levels of the virus control group to calculate the inhibition rate of compounds on HCV.

| Compound | inhibition at 10 µM |
| --- | --- |
| CCCN1CCN(c2ccc(C#N)c(CN(C)c3ccc(Oc4ccccc4)cc3)c2)CC1 [Compound 22, 4-(4-propylpiperazin-1-yl)-2-((p-phenoxyphenyl)(methyl)amino)methylbenzonitrile] | 86% |
| CN1CCN(c2ccc(C#N)c(CN3CCN(c4ccc(C(C)(C)C)cc4)CC3)c2)CC1 [VI-13, 4-(4-methylpiperazin-1-yl)-2-(4-(4-tert-butylphenyl)piperazin-1-yl)methylbenzonitrile] | 90% |
| COc1ccc(N(C)Cc2cc(N3CCN(C)CC3)ccc2C#N)cc1 [Compound 16, 4-(4-methylpiperazin-1-yl)-2-((p-methoxyphenyl)(methyl)amino)methylbenzonitrile] | 84% |
| Cc1ccc(NCc2cc(N3CCNC(C)C3)ccc2C#N)cc1 (stereo not shown) [Compound 5, 4-(3-methylpiperazin-1-yl)-2-(p-methylphenylamino)methylbenzonitrile] | 88% |
| CCCN1CCN(c2ccc(C#N)c(CNc3ccccc3)c2)CC1 [Compound 18, 4-(4-propylpiperazin-1-yl)-2-(phenylamino)methylbenzonitrile] | 75% |
| COc1ccc(NCc2nc(N(C)CCN(C)C)ccc2C#N)cc1 [Compound 38, 6-((2-(dimethylamino)ethyl)(methyl)amino)-2-((4-methoxyphenyl)amino)methyl-3-cyanopyridine] | 70% |
| COc1ccc(N(C)Cc2cc(N3CCN(c4ccccc4)CC3)ccc2C#N)cc1 [Compound 20, 4-(4-phenylpiperazin-1-yl)-2-((p-methoxyphenyl)(methyl)amino)methylbenzonitrile] | 70% |
| CN1CCN(c2ccc(C#N)c(CN3CCN(c4ccc(N(C)C)cc4)CC3)c2)CC1 [VI-21, 4-(4-methylpiperazin-1-yl)-2-(4-(4-dimethylaminophenyl)piperazin-1-yl)methylbenzonitrile] | 65% |
| Cc1ccc(NCc2cc(NCCN3CCCCC3)ccc2C#N)cc1 [Compound 28, 4-((2-(piperidin-1-yl)ethyl)amino)-2-(p-methylphenylamino)methylbenzonitrile] | 65% |
| CN1CCN(c2ccc(C#N)c(CNc3ccc(C(C)(C)C)cc3)c2)CC1 [Compound 12, 4-(4-methylpiperazin-1-yl)-2-(p-tert-butylphenylamino)methylbenzonitrile] | 92% |
| CN1CCN(c2ccc(C#N)c(CN3CCN(c4ccc(O)cc4)CC3)c2)CC1 [VI-19, 4-(4-methylpiperazin-1-yl)-2-(4-(4-hydroxylphenyl)piperazin-1-yl)methylbenzonitrile] | 67% |
| CN(C)CNc1ccc(C#N)c(CNc2ccc(C(C)(C)C)cc2)c1 [Compound 32, 2-((4-tert-butylphenyl)amino)methyl-4-((N,N-dimethylamino)methyl)aminobenzonitrile] | 73% |
| CN1CCN(c2ccc(C#N)c(CNc3ccc(Br)cc3)c2)CC1 [Compound 42, 2-(((4-bromophenyl)amino)methyl)-4-(4-methylpiperazin-1-yl)benzonitrile] | 87% |
| Cc1cc(C2CCN(Cc3cc(N4CCN(C)CC4)ccc3C#N)CC2)ccc1C#N [VI-23, 4-(4-methylpiperazin-1-yl)-2-(4-(3-methyl-4-cyanophenyl)piperidin-1-yl)methylbenzonitrile] | 77% |
| CN1CCN(c2ccc(C#N)c(CNc3ccc(C4CCCCC4)cc3)c2)CC1 [Compound 11, 4-(4-methylpiperazin-1-yl)-2-(p-cyclohexylphenylamino)methylbenzonitrile] | 97% |
| Cc1ccc(N2CCN(Cc3cc(N4CCN(C)CC4)ccc3C#N)CC2)cc1 [VI-4, 4-((4-methyl)piperazin-1-yl)-2-(4-(4-methylphenyl)piperazin-1-yl)methylbenzonitrile] | 98% |

| Compound | inhibition at 10 µM |
| --- | --- |
| CN1CCN(c2ccc(C#N)c(CN3CCN(c4ccc(Br)cc4)CC3)c2)CC1 [VI-34, 2-(4-(4-bromophenyl)piperazin-1-yl)methyl-4-(4-methylpiperazin-1-yl)benzonitrile] | 91% |
| Cc1ccc(N2CCN(Cc3cc(N4CCNCC4)ccc3C#N)CC2)cc1 [VI-6, 4-(piperazin-1-yl)-2-(4-(4-methylphenyl)piperazin-1-yl)methylbenzonitrile] | 88% |
| COc1ccc(N(C)Cc2cc(N3CC(C)NC(C)C3)ccc2C#N)cc1 (stereo not shown) [Compound 25, 4-(3,5-dimethylpiperazin-1-yl)-2-((p-methoxyphenyl)(methyl)amino)methylbenzonitrile] | 75% |
| COc1ccc(NCc2nc(N3CCN(C)CC3)ccc2C#N)cc1 [Compound 36, 2-((4-methoxyphenyl)amino)methyl-6-(4-methylpiperazin-1-yl)-3-cyanopyridine] | 75% |
| CNc1ccc(N2CCN(Cc3cc(N4CCN(C)CC4)ccc3C#N)CC2)cc1 [VI-20, 4-(4-methylpiperazin-1-yl)-2-(4-(4-methylaminophenyl)piperazin-1-yl)methylbenzonitrile] | 78% |
| Cc1ccc(NCc2cc(N3CCN(C)CC3)ccc2C#N)cc1 [Compound 3, 4-(4-methylpiperazin-1-yl)-2-(p-methylphenylamino)methylbenzonitrile] | 92% |
| Cc1ccc(N(C)Cc2cc(N3CCN(C)CC3)ccc2C#N)cc1 [Compound 14, 4-(4-methylpiperazin-1-yl)-2-((p-methylphenyl)(methyl)amino)methylbenzonitrile] | 97% |
| Cc1ccc(N2CCN(Cc3cc(N(C)CN4CCCCC4)ccc3C#N)CC2)cc1 [VI-36, 4-((methyl)((piperidin-1-yl)-methyl)amino)-2-(4-p-methylphenylpiperazin-1-yl)methylbenzonitrile] | 91% |
| Cc1cccc(NCc2nc(N(C)CCN(C)C)ccc2C#N)c1 [Compound 40, 6-((2-(dimethylamino)ethyl)(methyl)amino)-2-((3-methylphenyl)amino)methyl-3-cyanopyridine] | 84% |
| COc1ccc(NCc2cc(NCN3CCCCC3)ccc2C#N)cc1 [Compound 31, 2-((4-methoxyphenyl)amino)methyl-4-(piperidin-1-ylmethyl)aminobenzonitrile] | 61% |
| CN1CCN(c2ccc(C#N)c(CNc3ccc(C4CCCC4)cc3)c2)CC1 [Compound 24, 4-(4-methylpiperazin-1-yl)-2-(p-cyclopentylphenylamino)methylbenzonitrile] | 94% |
| Cc1ccc(N2CCN(Cc3cc(N4CCN(C)CC4)ccc3C#N)CC2)cc1C [VI-11, 4-(4-methylpiperazin-1-yl)-2-(4-(3,4-dimethylphenyl)piperazin-1-yl)methylbenzonitrile] | 80% |
| CN1CCN(c2ccc(C#N)c(CNc3ccc(C4CCCC4)cc3)n2)CC1 [Compound 35, 6-(4-methylpiperazin-1-yl)-2-((4-cyclopentylphenylamino)methyl)-3-cyanopyridine] | 80% |
| CCc1ccc(N2CCN(Cc3cc(N4CCN(C)CC4)ccc3C#N)CC2)cc1 [VI-14, 4-(4-methylpiperazin-1-yl)-2-(4-(4-ethylphenyl)piperazin-1-yl)methylbenzonitrile] | 88% |
| Cc1ccc(NCc2nc(N3CCN(C)CC3)ccc2C#N)cc1 [Compound 37, 2-((4-methylphenyl)amino)methyl-6-(4-methylpiperazin-1-yl)-3-cyanopyridine] | 72% |

same assay, conditions: compound at 10 μmol/L; Huh7.5 cells infected with HCV virus particles; cultured 96 hrs; HCV RNA in cells vs virus control group

| Compound | percent inhibition (%) |
| --- | --- |
| CN(C)CCN(C)c1ccc(C#N)c(CN2CCC(c3ccc(Cl)cc3)CC2)c1 [VI-39, 4-(N,N′,N′-trimethyl-1,2-ethylenediamin-1-yl)-2-(4-p-chlorophenylpiperidin-1-yl)methylbenzonitrile] | 88% |
| CN(C)CCCNc1ccc(C#N)c(CN2CCN(c3ccc(Cl)cc3)CC2)c1 [VI-29, 4-(N′,N′-dimethyl-1,3-propanediamin-1-yl)-2-(4-p-chlorophenylpiperazin-1-yl)methylbenzonitrile] | 80% |
| CN(C)CCN(C)c1ccc(C#N)c(CN2CCN(c3ccc(OC(F)(F)F)cc3)CC2)c1 [VI-47, 4-(N,N′,N′-trimethyl-1,2-ethylenediamin-1-yl)-2-(4-trifluoromethoxyphenylpiperazin-1-yl)methylbenzonitrile] | 93% |
| COc1ccc(N2CCN(Cc3cc(N4C(C)CNCC4C)ccc3C#N)CC2)cc1 (stereo not shown) [VI-25] | 67% |
| Cc1ccc(N2CCN(Cc3cc(NCCCN(C)C)ccc3C#N)CC2)cc1 [VI-26, 4-(N′,N′-dimethyl-1,3-propanediamin-1-yl)-2-(4-p-methylphenylpiperazin-1-yl)methylbenzonitrile] | 58% |
| COc1ccc(N2CCN(Cc3cc(NCCN(C)C)ccc3C#N)CC2)cc1 [VI-30, 4-(N′,N′-dimethyl-1,2-ethylenediamin-1-yl)-2-(4-p-methoxyphenylpiperazin-1-yl)methylbenzonitrile] | 66% |
| Cc1ccc(NCc2cc(NCCCN(C)C)ccc2C#N)cc1 [Compound 26, 4-(N,N-dimethyl-1,3-propanediamin-1-yl)-2-(p-methylphenylamino)methylbenzonitrile] | 79% |
| COc1ccc(NCc2cc(NCCN(C)C)ccc2C#N)cc1 [Compound 30, 4-(N,N-dimethyl-1,3-ethylenediamin-1-yl)-2-(p-methoxyphenylamino)methylbenzonitrile] | 49% |
| CN(C)CCN(C)c1ccc(C#N)c(CN2CCN(c3ccc(Cl)cc3)CC2)c1 [VI-35, 4-(N,N′,N′-trimethyl-1,2-ethylenediamin-1-yl)-2-(4-p-chlorophenylpiperazin-1-yl)methylbenzonitrile] | 99% |
